Laboratory results published in US20110071124A1, “Compounds that Inhibit Production of sAPPB and AB and Uses Thereof” (The Trustees of Columbia University in the City of New York, priority 2008, published 2011).

How the values were obtained:
[1] = weight and overt toxicity in treated Tg2576 mice; format: in vivo; conditions: 3 mg/kg intraperitoneal, 9 days
Method: A total of 16 mice were treated with either DMSO (n=8) or 3 mg/kg CNS-2 (n=8). The dosage was selected arbitrarily based on compound solubility in 0.9% normal saline. CNS-2 was dissolved in 0.9% normal saline solution with 1.9% final DMSO concentration. 12- to 13-month old Tg2576 mice were treated with DMSO or CNS-2 via intraperitoneal injection for 9 days (1 injection per day) at an injection volume of 20 μl per gram of weight. Mouse weight was monitored daily, and the total injection volume adjusted accordingly over the course of the 9-day treatment. […] Mice were sacrificed on day 9, 5 hours after the final injection. One hemibrain from each mouse was homogenized and processed for formic acid extraction of plaque Aβ. Total Aβ40 was determined by Aβ ELISA kit and normalized to total protein (FIG. 18).

[2] = tested on: Aβ40 in SY5Y-BACEGFP-SEAPAPPwt cells; assay: Aβ40 ELISA (BioSource) in SY5Y-BACEGFP-SEAPAPPwt cells; format: cell-based; conditions: for IC50: SAR study, 8 concentrations (30-0.01 μM), SY5Y-BACEGFP-SEAPAPPwt cells
Method: FIG. 11. 5 LDDN compounds reduce Aβ40 in SYSY-BACEGFP-SEAPAPPwt cells. sAPPβ and 24-hour cell viability was performed as described in Chapter 4.1. Aβ40 ELISA was performed using the Aβ40 ELISA kit (BioSource) according to the manufacturer's protocol. Cell culture media was collected after 6 hours of treatment with 4 concentrations (30, 10, 3, 0.3 μM) of compound and diluted 3:10 prior to loading onto the Aβ ELISA plate. The data points for sAPPβ and Aβ were roughly superimposed. Data points represent mean±s.d. of 3 determinations.
FIG. 13. […] Compounds were tested in SY5Y-BACEGFP-SEAPAPPwt cells using the cell-based BACE1 assay. Select compounds were also investigated for Aβ-lowering effect using a commercial Aβ ELISA kit (BioSource). All compounds were tested at 8 concentrations (30, 10, 3, 1, 0.3, 0.1, 0.03, and 0.01 μM), and data points were analyzed with Origin software and fitted using a logistic model for IC50 determination.
In other non-limiting embodiments, the effective amount of at least one compound of Formulas I-VII, and/or a compound depicted in FIG. 19, may be correlated with the compound's ability to reduce the level of Aβ40 in an in vitro assay that measures the level of Aβ40 produced in a cell line, for example, an SY5Y-BACEGFP-SEAPAPPwt cell line. In one non-limiting example, the level of Aβ40 expressed by the cell line may be measured through the use of an Aβ40 Elisa kit (Bio Source). In one embodiment, the assay comprises incubating the Aβ40 expressing cells with a compound of Formulas I-VII, and/or a compound depicted in FIG. 19, followed by assaying the concentration of Aβ40 in the cell media. In such an assay, a greater reduction of Aβ40 concentration in the cell media following incubation with a compound compared to a control cell line not contacted with the compound is correlative with the compound's therapeutic efficacy.
The 15 LDDN compounds were tested in SY5Y-BACEGFP-SEAPAPPwt cells for their ability to reduce Aβ40 using a commercial Aβ40 ELISA kit (BioSource). SY5Y-BACEGFP-SEAPAPPwt cells were grown to 100% confluence and incubated with 4 concentrations of each compound (30, 10, 3, 0.3 μM). Cell culture media was collected after 6 hours of compound incubation and diluted 3:10 in sample diluent supplied in the Aβ40 ELISA kit. Aβ ELISA was performed according to the manufacturer's protocol. […] LDN-0057228 and LDN-0069630 are small molecules with ample chemical space for modification, and are thus considered good candidates for medicinal chemistry.
27 structural analogs of LDN-0057228 were synthesized and tested using the cell-based BACE1 assay in SY5Y-BACEGFP-SEAPAPPwt cells (FIG. 13). 4 analogs, in addition to the parent compound, were also assessed for Aβ40 lowering activity using a commercial Aβ kit (BioSource). Because LDN-0057228 resembles CNS monoamine transporter inhibitors, this analog series was given the designation “CNS.” LDN-0057228 gave an unexpectedly low potency (IC50˜20 μM for both sAPPβ and Aβ40 reduction) compared to the ˜7 μM potency obtained using the same compound in FIG. 8.

[3] = tested on: sAPPβ in Lenti-APPsw infected primary cortical neurons; assay: sAPPβ IP-Western in Lenti-APPsw infected primary cortical neurons; format: cell-based, mouse; conditions: 20 μM, 24 hours, normalized to APP
Method: FIG. 15A-D. LDN-0057228 reduces Aβ40 and sAPPβ in primary neurons. DIV-14 primary cortical neurons from wild-type mice were incubated for 24 hours with primary culture media containing lentivirus harboring APPsw. After infection, neurons were incubated for 48 hours with 1:1 fresh to conditioned media to allow for APP expression. Neurons were then treated with LDN-0057228 at 20 μM for 24 hours in triplicate. A) Media was collected for Aβ40 ELISA. Raw Aβ40 values were normalized to APP to control for variations in lentiviral infection efficiency. B) Cell lysates were probed with 6E10 antibody to visualize the transduced full-length APP. C) sAPPβ from neuron culture media was immunoprecipitated with sβsw antibody and probed with LN27. D) Quantification of sAPPβ, normalized to APP. Data in A) and […]) represent mean+s.d. of 3 wells. Bands from B) and C) were quantified using ImageJ software.
Using this experimental paradigm, LDN-0057228 was tested at 20 μM concentration to confirm the sAPPβ- and Aβ-lowering activity of the compound (FIG. 15). The protocol was modified slightly to allow for 24-hour compound treatment. […]
LDN-0057228 caused a 75% reduction in Aβ40 levels (p<0.05) in primary neurons (FIG. 15A). […] The sAPPβ bands were quantified using ImageJ software and normalized to APP, showing a 40% reduction in sAPPβ (p<0.01) for the treated neurons (FIG. 15D).

| Structure (SMILES) | changes in weight and overt signs of toxicity [1] | IC50 [2] [µM] | reduction in sAPPβ [3] [%] | dose-dependent decrease in Aβ40 ([2]; 4 concentrations (30, 10, 3, 0.3 μM), 6 hours) |
| --- | --- | --- | --- | --- |
| O=C(CCc1ccccc1)NC[C@@H]1CCCN1CCOC(c1ccc(F)cc1)c1ccc(F)cc1 [CNS-2] | Neither the treated nor control groups exhibited any significant changes in weight or any overt signs of toxicity | 5 |  |  |
| Fc1ccc(C(OCCN2CCC[C@H]2CNCCc2ccccc2)c2ccc(F)cc2)cc1 [LDN-0057228] |  | ~20 | 40 | caused a dose-dependent decrease in Aβ40 |
